Patent US20240132521A1, “COMPOUNDS AND METHODS FOR MODULATING HER2” (Iambic Therapeutics, Inc., priority 2022, published 2024)

Tests used:
Assay type in all cases: cell-based
[1] = target: BaF3_HER2WT cells (Homo sapiens, UniProt P04626); test: Cell growth inhibition assay (CellTiterGlo), BaF3_HER2WT; details: 3-day treatment, CellTiterGlo, read-out: Cell growth inhibition activity, HER2 WT
[2] = target: BaF3_HER2YVMA cells (Homo sapiens, UniProt P04626, DUP772-775, cells depend on it); test: Cell growth inhibition assay (CellTiterGlo), BaF3_HER2YVMA; details: 3-day treatment, CellTiterGlo, read-out: Cell growth inhibition activity, HER2 - YVMA
Chain of BaF3_HER2YVMA cells (P04626 with tags, fused parts or gaps DUP772-775): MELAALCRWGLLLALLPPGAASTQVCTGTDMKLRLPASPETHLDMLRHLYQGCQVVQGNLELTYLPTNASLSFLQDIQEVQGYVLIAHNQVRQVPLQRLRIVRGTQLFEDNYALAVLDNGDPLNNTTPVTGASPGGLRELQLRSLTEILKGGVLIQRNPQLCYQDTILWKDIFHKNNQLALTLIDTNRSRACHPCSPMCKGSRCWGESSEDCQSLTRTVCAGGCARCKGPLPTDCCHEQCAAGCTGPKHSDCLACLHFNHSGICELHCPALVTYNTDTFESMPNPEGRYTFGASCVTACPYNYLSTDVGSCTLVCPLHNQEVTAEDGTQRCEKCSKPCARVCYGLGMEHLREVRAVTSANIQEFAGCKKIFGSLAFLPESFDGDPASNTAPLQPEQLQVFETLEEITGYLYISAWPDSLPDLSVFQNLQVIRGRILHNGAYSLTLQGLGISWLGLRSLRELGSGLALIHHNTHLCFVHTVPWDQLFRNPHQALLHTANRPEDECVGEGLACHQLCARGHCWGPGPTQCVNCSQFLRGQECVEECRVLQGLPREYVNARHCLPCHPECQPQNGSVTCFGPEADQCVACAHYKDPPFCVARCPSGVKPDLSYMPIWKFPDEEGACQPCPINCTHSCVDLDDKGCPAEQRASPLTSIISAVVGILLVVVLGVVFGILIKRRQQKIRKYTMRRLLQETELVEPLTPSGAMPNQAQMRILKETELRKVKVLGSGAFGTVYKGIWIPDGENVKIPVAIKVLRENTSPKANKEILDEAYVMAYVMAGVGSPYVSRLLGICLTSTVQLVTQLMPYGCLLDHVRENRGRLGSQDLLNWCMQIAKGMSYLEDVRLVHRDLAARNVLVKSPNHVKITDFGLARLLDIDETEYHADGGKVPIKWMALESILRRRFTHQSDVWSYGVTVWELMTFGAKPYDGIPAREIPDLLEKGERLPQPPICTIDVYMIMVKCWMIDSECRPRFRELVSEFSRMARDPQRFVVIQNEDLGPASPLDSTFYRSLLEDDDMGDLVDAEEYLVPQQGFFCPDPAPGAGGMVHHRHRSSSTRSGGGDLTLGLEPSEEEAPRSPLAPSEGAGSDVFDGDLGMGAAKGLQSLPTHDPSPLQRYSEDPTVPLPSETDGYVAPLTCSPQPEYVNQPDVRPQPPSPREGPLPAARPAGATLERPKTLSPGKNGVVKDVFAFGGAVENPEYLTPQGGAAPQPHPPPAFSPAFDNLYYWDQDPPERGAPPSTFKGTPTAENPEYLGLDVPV

[3] = target: BaF3_EGFRWT cells (Homo sapiens, UniProt P00533); test: Cell growth inhibition assay (CellTiterGlo), BaF3_EGFRWT; details: 3-day treatment, CellTiterGlo, read-out: Cell growth inhibition activity, EGFR WT
Chain of BaF3_EGFRWT cells (P00533 whole entry, change not shown): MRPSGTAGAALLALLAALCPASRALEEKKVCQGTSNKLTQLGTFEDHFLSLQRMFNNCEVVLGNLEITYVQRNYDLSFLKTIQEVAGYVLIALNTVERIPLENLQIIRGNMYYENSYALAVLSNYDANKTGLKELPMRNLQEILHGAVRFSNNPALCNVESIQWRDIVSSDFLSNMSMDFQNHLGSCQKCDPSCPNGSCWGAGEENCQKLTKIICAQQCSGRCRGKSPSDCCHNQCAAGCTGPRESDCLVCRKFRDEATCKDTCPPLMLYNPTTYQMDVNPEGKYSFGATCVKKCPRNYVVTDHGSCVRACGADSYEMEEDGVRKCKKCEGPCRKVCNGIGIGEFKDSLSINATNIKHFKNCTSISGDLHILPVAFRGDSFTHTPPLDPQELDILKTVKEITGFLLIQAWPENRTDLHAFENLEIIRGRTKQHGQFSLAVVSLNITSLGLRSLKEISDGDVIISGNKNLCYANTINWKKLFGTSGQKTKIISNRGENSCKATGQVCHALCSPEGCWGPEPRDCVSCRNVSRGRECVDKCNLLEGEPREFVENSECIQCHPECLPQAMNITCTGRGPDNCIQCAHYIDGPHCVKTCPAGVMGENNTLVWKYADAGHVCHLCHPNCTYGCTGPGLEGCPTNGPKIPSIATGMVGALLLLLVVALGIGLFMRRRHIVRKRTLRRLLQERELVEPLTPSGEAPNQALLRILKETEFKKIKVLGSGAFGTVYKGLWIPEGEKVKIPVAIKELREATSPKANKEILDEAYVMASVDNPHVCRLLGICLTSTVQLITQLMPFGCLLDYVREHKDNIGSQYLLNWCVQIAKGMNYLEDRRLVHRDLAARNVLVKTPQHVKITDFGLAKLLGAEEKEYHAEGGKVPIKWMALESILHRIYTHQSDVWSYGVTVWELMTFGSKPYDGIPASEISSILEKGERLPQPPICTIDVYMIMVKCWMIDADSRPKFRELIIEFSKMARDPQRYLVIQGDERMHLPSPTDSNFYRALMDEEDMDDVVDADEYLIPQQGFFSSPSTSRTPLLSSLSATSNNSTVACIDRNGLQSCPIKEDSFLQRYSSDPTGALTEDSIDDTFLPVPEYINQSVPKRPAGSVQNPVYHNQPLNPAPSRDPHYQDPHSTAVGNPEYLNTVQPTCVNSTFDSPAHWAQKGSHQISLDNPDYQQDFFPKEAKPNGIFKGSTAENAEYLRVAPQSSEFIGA

Chain of BaF3_HER2WT cells (P04626 whole entry, change not shown): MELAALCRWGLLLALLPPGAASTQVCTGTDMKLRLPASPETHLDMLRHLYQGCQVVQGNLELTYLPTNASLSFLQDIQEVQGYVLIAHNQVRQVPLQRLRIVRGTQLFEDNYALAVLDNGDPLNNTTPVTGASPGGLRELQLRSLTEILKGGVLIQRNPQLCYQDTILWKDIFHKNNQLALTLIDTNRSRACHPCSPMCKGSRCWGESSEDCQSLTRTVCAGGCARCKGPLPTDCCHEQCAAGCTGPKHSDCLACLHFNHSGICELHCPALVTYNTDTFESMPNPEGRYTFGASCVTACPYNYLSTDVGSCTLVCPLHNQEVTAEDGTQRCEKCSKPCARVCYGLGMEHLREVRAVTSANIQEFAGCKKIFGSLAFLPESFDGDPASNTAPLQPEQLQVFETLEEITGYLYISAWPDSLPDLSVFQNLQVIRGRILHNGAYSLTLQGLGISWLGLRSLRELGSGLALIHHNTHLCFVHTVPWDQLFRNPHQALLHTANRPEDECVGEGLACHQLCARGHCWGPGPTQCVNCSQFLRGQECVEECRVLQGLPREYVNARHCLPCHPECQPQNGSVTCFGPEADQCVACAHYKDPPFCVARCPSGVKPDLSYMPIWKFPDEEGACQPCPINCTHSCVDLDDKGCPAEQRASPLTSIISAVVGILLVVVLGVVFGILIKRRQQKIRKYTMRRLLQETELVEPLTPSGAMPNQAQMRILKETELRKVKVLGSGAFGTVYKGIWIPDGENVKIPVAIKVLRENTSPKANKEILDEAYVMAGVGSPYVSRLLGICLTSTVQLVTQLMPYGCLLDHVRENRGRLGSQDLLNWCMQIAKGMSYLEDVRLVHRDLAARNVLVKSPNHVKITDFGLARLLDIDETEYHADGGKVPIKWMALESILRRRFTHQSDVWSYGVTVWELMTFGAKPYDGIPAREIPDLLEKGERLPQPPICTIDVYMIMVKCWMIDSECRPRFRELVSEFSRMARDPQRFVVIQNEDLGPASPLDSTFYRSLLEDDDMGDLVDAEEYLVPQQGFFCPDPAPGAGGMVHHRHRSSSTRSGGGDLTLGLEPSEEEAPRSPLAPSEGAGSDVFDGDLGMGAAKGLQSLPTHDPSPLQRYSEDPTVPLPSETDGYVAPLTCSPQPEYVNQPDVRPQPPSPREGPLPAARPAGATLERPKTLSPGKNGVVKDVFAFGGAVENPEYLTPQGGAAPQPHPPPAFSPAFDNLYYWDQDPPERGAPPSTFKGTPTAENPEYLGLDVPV

| Structure (SMILES) | GI50 [1] [nM] | GI50 [2] [nM] | GI50 [3] [nM] |
| --- | --- | --- | --- |
| C=C(CN(C)C)C(=O)N1C2CCC1CN(c1ccn3ncnc(Nc4ccc(Oc5ccn6ncnc6c5)c(C)c4)c13)C2 [Example 48, 1-(3-(4-((4-([1,2,4]triazolo[1,5-a]pyridin-7-yloxy)-3-methylphenyl)amino)pyrrolo[2,1-f][1,2,4]triazin-5-yl)-3,8-diazabicyclo[3.2.1]octan-8-yl)-2-((dimethylamino)methyl)prop-2-en-1-one] | 200 to 500 | 1500 to 5000 | 1500 to 5000 |
| C=C(CN(C)C)C(=O)N1CC2CCC(C1)N2c1ccn2ncnc(Nc3ccc(Oc4ccn5ncnc5c4)c(C)c3)c12 [Example 49, 1-(8-(4-((4-([1,2,4]triazolo[1,5-a]pyridin-7-yloxy)-3-methylphenyl)amino)pyrrolo[2,1-f][1,2,4]triazin-5-yl)-3,8-diazabicyclo[3.2.1]octan-3-yl)-2-((dimethylamino)methyl)prop-2-en-1-one acetate] | < 200 | < 200 | 1500 to 5000 |
| Cc1cc(Nc2ncnn3ccc(C4(O)CCN(C(=O)/C=C/CN(C)C)CC4)c23)ccc1Oc1ccn2ncnc2c1 [Example 50, (E)-1-(4-(4-((4-([1,2,4]triazolo[1,5-a]pyridin-7-yloxy)-3-methylphenyl)amino)pyrrolo[2,1-f][1,2,4]triazin-5-yl)-4-hydroxypiperidin-1-yl)-4-(dimethylamino)but-2-en-1-one] | 200 to 500 | 500 to 1500 | 1500 to 5000 |
| Cc1cc(Nc2ncnn3ccc(C4(O)CN(C(=O)/C=C/CN(C)C)C4)c23)ccc1Oc1ccn2ncnc2c1 [Example 51, (E)-1-(3-(4-((4-([1,2,4]triazolo[1,5-a]pyridin-7-yloxy)-3-methylphenyl)amino)pyrrolo[2,1-f][1,2,4]triazin-5-yl)-3-hydroxyazetidine-1-yl)-4-(dimethylamino)but-2-en-1-one] | < 200 | < 200 | 1500 to 5000 |
| COC1(c2ccn3ncnc(Nc4ccc(Oc5ccn6ncnc6c5)c(C)c4)c23)CCN(C(=O)/C=C/CN(C)C)CC1 [Example 52, (E)-1-(4-(4-((4-([1,2,4]triazolo[1,5-a]pyridin-7-yloxy)-3-methylphenyl)amino)pyrrolo[2,1-f][1,2,4]triazin-5-yl)-4-methoxypiperidin-1-yl)-4-(dimethylamino)but-2-en-1-one] | 200 to 500 | 500 to 1500 | 1500 to 5000 |
| Cc1cc(Nc2ncnn3ccc(C4=CCN(C(=O)/C=C/CN(C)C)CC4)c23)ccc1Oc1ccn2ncnc2c1 [Example 53, (E)-1-(4-(4-((4-([1,2,4]triazolo[1,5-a]pyridin-7-yloxy)-3-methylphenyl)amino)pyrrolo[2,1-f][1,2,4]triazin-5-yl)-3,6-dihydropyridin-1(2H)-yl)-4-(dimethylamino)but-2-en-1-one] | < 200 | < 200 | 1500 to 5000 |
| Cc1cc(Nc2ncnn3ccc(N4CCN(C(=O)/C=C/CN(C)C)CC4=O)c23)ccc1Oc1ccn2ncnc2c1 [Example 54, (E)-1-(4-((4-([1,2,4]triazolo[1,5-a]pyridin-7-yloxy)-3-methylphenyl)amino)pyrrolo[2,1-f][1,2,4]triazin-5-yl)-4-(4-(dimethylamino)but-2-enoyl)piperazin-2-one] | 500 to 1500 | 1500 to 5000 | 1500 to 5000 |
| C=CC(=O)N1CCC2CCC(C1)N2c1ccn2ncnc(Nc3ccc(Oc4ccn5ncnc5c4)c(C)c3)c12 (stereo not drawn) [Example 55, 1-(9-(4-((4-([1,2,4]triazolo[1,5-a]pyridin-7-yloxy)-3-methylphenyl)amino)pyrrolo[2,1-f][1,2,4]triazin-5-yl)-3,9-diazabicyclo[4.2.1]nonan-3-yl)prop-2-en-1-one] | < 200 | 500 to 1500 | 1500 to 5000 |
| Cc1cc(Nc2ncnn3ccc(C4CCN(C(=O)/C=C/CN5CCOCC5)CC4)c23)ccc1Oc1ccn2ncnc2c1 [Example 56, (E)-1-(4-(4-((4-([1,2,4]triazolo[1,5-a]pyridin-7-yloxy)-3-methylphenyl)amino)pyrrolo[2,1-f][1,2,4]triazin-5-yl)piperidin-1-yl)-4-morpholinobut-2-en-1-one] | < 200 | < 200 | 1500 to 5000 |
| Cc1cc(Nc2ncnn3ccc(C4CCN(C(=O)/C=C/CN5CCCCC5)CC4)c23)ccc1Oc1ccn2ncnc2c1 [Example 57, (E)-1-(4-(4-((4-([1,2,4]triazolo[1,5-a]pyridin-7-yloxy)-3-methylphenyl)amino)pyrrolo[2,1-f][1,2,4]triazin-5-yl)piperidin-1-yl)-4-(piperidin-1-yl)but-2-en-1-one] | < 200 | < 200 | 1500 to 5000 |
| COC/C=C/C(=O)N1CCC(c2ccn3ncnc(Nc4ccc(Oc5ccn6ncnc6c5)c(C)c4)c23)CC1 [Example 58, (E)-1-(4-(4-((4-([1,2,4]triazolo[1,5-a]pyridin-7-yloxy)-3-methylphenyl)amino)pyrrolo[2,1-f][1,2,4]triazin-5-yl)piperidin-1-yl)-4-methoxybut-2-en-1-one] | < 200 | 500 to 1500 | 1500 to 5000 |
| C#CCN(C)C/C=C/C(=O)N1CCC(c2ccn3ncnc(Nc4ccc(Oc5ccn6ncnc6c5)c(C)c4)c23)CC1 [Example 59, (E)-1-(4-(4-((4-([1,2,4]triazolo[1,5-a]pyridin-7-yloxy)-3-methylphenyl)amino)pyrrolo[2,1-f][1,2,4]triazin-5-yl)piperidin-1-yl)-4-(methyl(prop-2-yn-1-yl)amino)but-2-en-1-one] | < 200 | 200 to 500 | 1500 to 5000 |
| Cc1cc(Nc2ncnn3ccc(C4CN(C(=O)/C=C/CN5CCC(F)CC5)C4)c23)ccc1Oc1ccn2ncnc2c1 [Example 62, (E)-1-(3-(4-((4-([1,2,4]triazolo[1,5-a]pyridin-7-yloxy)-3-methylphenyl)amino)pyrrolo[2,1-f][1,2,4]triazin-5-yl)azetidin-1-yl)-4-(4-fluoropiperidin-1-yl)but-2-en-1-one] | < 200 | < 200 | 1500 to 5000 |
| Cc1cc(Nc2ncnn3ccc(N4CCN(C(=O)C(F)Cl)CC(F)(F)C4)c23)ccc1Oc1ccn2ncnc2c1 (stereo not drawn) [Example 63, 1-(4-(4-((4-([1,2,4]triazolo[1,5-a]pyridin-7-yloxy)-3-methylphenyl)amino)pyrrolo[2,1-f][1,2,4]triazin-5-yl)-6,6-difluoro-1,4-diazepan-1-yl)-2-chloro-2-fluoroethan-1-one] | 500 to 1500 | 500 to 1500 | 1500 to 5000 |
| Cc1cc(Nc2ncnn3ccc(C4CCN(C(=O)C#CCN(C)C)CC4)c23)ccc1Oc1ccn2ncnc2c1 [Example 64, 1-(4-(4-((4-([1,2,4]triazolo[1,5-a]pyridin-7-yloxy)-3-methylphenyl)amino)pyrrolo[2,1-f][1,2,4]triazin-5-yl)piperidin-1-yl)-4-(dimethylamino)but-2-yn-1-one] | < 200 | < 200 | 200 to 500 |
| Cc1cc(Nc2ncnn3ccc(C4CCN(C(=O)/C=C/C5CCCN5C)CC4)c23)ccc1Oc1ccn2ncnc2c1 (stereo not drawn) [Example 65, (E)-1-(4-(4-((4-([1,2,4]triazolo[1,5-a]pyridin-7-yloxy)-3-methylphenyl)amino)pyrrolo[2,1-f][1,2,4]triazin-5-yl)piperidin-1-yl)-3-(1-methylpyrrolidin-2-yl)prop-2-en-1-one] | < 200 | < 200 | 1500 to 5000 |
| Cc1cc(Nc2ncnn3ccc(C4CN(C(=O)/C=C/C5CCCN5C)C4)c23)ccc1Oc1ccn2ncnc2c1 (stereo not drawn) [Example 66, (E)-1-(3-(4-((4-([1,2,4]triazolo[1,5-a]pyridin-7-yloxy)-3-methylphenyl)amino)pyrrolo[2,1-f][1,2,4]triazin-5-yl)azetidin-1-yl)-3-(1-methylpyrrolidin-2-yl)prop-2-en-1-one] | < 200 | < 200 | 1500 to 5000 |
| C=C(CN(C)C)C(=O)N1CC(c2ccn3ncnc(Nc4ccc(Oc5ccc6c(c5)ncn6C)c(C)c4)c23)C1 [Example 67, 2-((dimethylamino)methyl)-1-(3-(4-((3-methyl-4-((1-methyl-1H-benzo[d]imidazol-5-yl)oxy)phenyl)amino)pyrrolo[2,1-f][1,2,4]triazin-5-yl)azetidin-1-yl)prop-2-en-1-one] | < 200 | < 200 | 500 to 1500 |
| Cc1cc(Nc2ncnn3ccc(N4CCCC(N(C)C(=O)/C=C/CN(C)C)C4)c23)ccc1Oc1ccn2ncnc2c1 (stereo not drawn) [Example 68, (E)-N-(1-(4-((4-([1,2,4]triazolo[1,5-a]pyridin-7-yloxy)-3-methylphenyl)amino)pyrrolo[2,1-f][1,2,4]triazin-5-yl)piperidin-3-yl)-4-(dimethylamino)-N-methylbut-2-enamide] | < 200 | < 200 | 1500 to 5000 |
| C=CC(=O)N(C)C1CCCN(c2ccn3ncnc(Nc4ccc(Oc5ccn6ncnc6c5)c(C)c4)c23)C1 (stereo not drawn) [Example 69, N-(1-(4-((4-([1,2,4]triazolo[1,5-a]pyridin-7-yloxy)-3-methylphenyl)amino)pyrrolo[2,1-f][1,2,4]triazin-5-yl)piperidin-3-yl)-N-methylacrylamide] | < 200 | 200 to 500 | 1500 to 5000 |
| Cc1cc(Nc2ncnn3ccc(N4CCC(N(C)C(=O)/C=C/CN(C)C)C4)c23)ccc1Oc1ccn2ncnc2c1 (stereo not drawn) [Example 70, (E)-N-(1-(4-((4-([1,2,4]triazolo[1,5-a]pyridin-7-yloxy)-3-methylphenyl)amino)pyrrolo[2,1-f][1,2,4]triazin-5-yl)pyrrolidin-3-yl)-4-(dimethylamino)-N-methylbut-2-enamide] | < 200 | < 200 | 1500 to 5000 |
| Cc1cc(Nc2ncnn3ccc(N4CC(NC(=O)/C=C/CN(C)C)C4)c23)ccc1Oc1ccn2ncnc2c1 [Example 71, (E)-N-(1-(4-((4-([1,2,4]triazolo[1,5-a]pyridin-7-yloxy)-3-methylphenyl)amino)pyrrolo[2,1-f][1,2,4]triazin-5-yl)azetidin-3-yl)-4-(dimethylamino)but-2-enamide] | < 200 | 200 to 500 | 1500 to 5000 |
